The record followed here is ChEMBL document CHEMBL1138862 (J Med Chem, 2006).

Each structure is given as a SMILES string. Values after ≈ are worked out from the molar mass of the structure shown.

The target in assay [1] is T1, Farnesyl diphosphate synthase (Escherichia coli K-12, UniProt P22939).
T1 sequence (P22939 whole entry): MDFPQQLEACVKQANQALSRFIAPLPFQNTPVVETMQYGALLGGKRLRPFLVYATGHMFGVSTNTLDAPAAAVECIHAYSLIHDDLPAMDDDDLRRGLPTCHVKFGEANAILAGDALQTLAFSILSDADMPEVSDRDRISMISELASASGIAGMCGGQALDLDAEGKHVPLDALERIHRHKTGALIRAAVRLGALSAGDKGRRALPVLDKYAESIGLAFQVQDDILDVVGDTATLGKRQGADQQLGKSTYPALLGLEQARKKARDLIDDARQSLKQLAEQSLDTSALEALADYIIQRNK
The assay is described as follows: Inhibition of Escherichia coli FPPS.

Assay [2] has as its system Escherichia coli. The assay is described as follows: Antibacterial activity against Escherichia coli W3110. The assay is classed as functional.
Assay [3] relates to Escherichia coli. Put plainly: Antibacterial activity against Escherichia coli pTMV19. Type of assay: functional.
Assay [4] has as its system Escherichia coli. Put plainly: Antibacterial activity against Escherichia coli pTMV19 in presence of mevalonate. The assay is classed as functional.
In assay [5] the test system is Escherichia coli. The assay is described as follows: Antibacterial activity against Escherichia coli K12 by broth microdilution method. The assay is classed as functional, organism-based.
Assay [6] has as its system Escherichia coli. Put plainly: Ratio, MIC/MBC for Escherichia coli K12. Type of assay: functional.
The test system of assay [7] is Escherichia coli. The assay is described as follows: Ratio, MIC/MBC for Escherichia coli K12 in presence of fosmidomycin. Type of assay: functional.
The target in assay [8] is T2, 1-deoxy-D-xylulose 5-phosphate reductoisomerase (Escherichia coli K-12, UniProt P45568).
T2 sequence (P45568 whole entry): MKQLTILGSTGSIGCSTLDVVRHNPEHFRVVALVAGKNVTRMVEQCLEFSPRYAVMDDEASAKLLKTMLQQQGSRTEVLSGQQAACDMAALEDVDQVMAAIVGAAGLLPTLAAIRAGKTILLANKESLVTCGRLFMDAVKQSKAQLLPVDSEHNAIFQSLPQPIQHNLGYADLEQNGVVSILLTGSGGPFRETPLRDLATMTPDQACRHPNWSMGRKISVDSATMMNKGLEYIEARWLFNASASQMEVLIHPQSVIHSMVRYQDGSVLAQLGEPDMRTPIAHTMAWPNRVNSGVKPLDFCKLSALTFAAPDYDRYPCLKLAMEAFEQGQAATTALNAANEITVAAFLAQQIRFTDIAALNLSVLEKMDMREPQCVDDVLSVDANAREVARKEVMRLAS
The assay is described as follows: Inhibition of Escherichia coli DXR.

The nature of assay [9]: Inhibition of Trypanosoma brucei FPPS expressed in Escherichia coli.
Assay [10] has as its system Escherichia coli. Put plainly: Antibacterial activity against Escherichia coli K12. The assay is classed as functional.
In assay [11] the test system is Escherichia coli. Put plainly: Antibacterial activity against Escherichia coli K12 in presence of fosmidomycin. The assay is classed as functional.

The molecule `O=P(O)(O)C(O)(Cn1cnc2ccccc21)P(=O)(O)O` came in with a half-maximal inhibitory concentration (IC50) in [1] of 700 nM. Moreover, the “inhibition zone (IZ)” value in assay [2] is 14 mm; in assay [3], 0 mm; in assay [4], 13 mm.

As to `CN(CCCCc1ccccc1)CCC(O)(P(=O)(O)O)P(=O)(O)O`, the 50% inhibitory concentration (IC50) in assay [5] was found to be 33000 nM; in assay [8], 245000 nM; in [1], 1300 nM; in assay [9], 444000 nM. Moreover, the Ratio is on record as 0.13 in assay [6] and 0.5 in [7]. Moreover, the figures for the “inhibition zone (IZ)” value in assay [2], in [3] and in [4] were 19 mm, 18 mm and 17 mm, respectively. Besides, the MBC in [10] came out at 1250 µM (≈ 477 µg/mL); in [11] it was 625 µM. Moreover, the MIC in assay [10] is 156 µM (≈ 59.5 µg/mL); in [11], 312 µM.

As for `CC1(C)S[C@@H]2[C@H](NC(=O)C(C(=O)O)c3ccccc3)C(=O)N2[C@H]1C(=O)O` (some centres undefined) [CARBENICILLIN], the Ratio in assay [6] amounted to 1. In addition, in assay [10], the MBC came out at 20 µM (≈ 7.57 µg/mL) and it took 20 µM (≈ 7.57 µg/mL) to inhibit growth (MIC).

As to `O=C(O)c1cn(C2CC2)c2cc(N3CCNCC3)c(F)cc2c1=O` [CIPROFLOXACIN], the Ratio in assay [6] is 0.5. In addition, in assay [10], the MBC was determined as 0.076 µM (≈ 0.0252 µg/mL) and the MIC was 0.038 µM (≈ 0.0126 µg/mL).

`O=CN(O)CCCP(=O)(O)O` [FOSMIDOMYCIN]: the IC50 came out at 220 nM in assay [5] and 200 nM in assay [9]. Besides, the results for the “inhibition zone (IZ)” value in assay [2], in assay [3] and in [4] were 20 mm, 19 mm and 0 mm, respectively. Also, the MBC in assay [10] was 2500 µM (≈ 458 µg/mL). The same molecule gave an MIC in assay [10] of 312 µM (≈ 57.1 µg/mL).

In turn, `O=P(O)(O)C(O)(Cc1cnc2ccccn12)P(=O)(O)O` [MINODRONIC ACID] registered an IC50 in assay [1] of 1100 nM. Moreover, the results for the “inhibition zone (IZ)” value in assay [2], in assay [3] and in assay [4] were 10 mm, 0 mm and 0 mm, respectively.
